From PMC8213057, “Targeting ALK2: An Open Science Approach to Developing Therapeutics for the Treatment of Diffuse Intrinsic Pontine Glioma” (Journal of Medicinal Chemistry, 2020)
Where “and” joins values, the source holds several entries; their conditions need not be identical. Identical values can stand only once.

Tests used:
ERK7/MAPK15 = target: T1, ERK7/MAPK15 (Homo sapiens, UniProt Q8TD08); test: biochemical; details: read-out: % enzyme activity, 1 μM; Run 1, Run 2
T1 sequence (Q8TD08 1-544): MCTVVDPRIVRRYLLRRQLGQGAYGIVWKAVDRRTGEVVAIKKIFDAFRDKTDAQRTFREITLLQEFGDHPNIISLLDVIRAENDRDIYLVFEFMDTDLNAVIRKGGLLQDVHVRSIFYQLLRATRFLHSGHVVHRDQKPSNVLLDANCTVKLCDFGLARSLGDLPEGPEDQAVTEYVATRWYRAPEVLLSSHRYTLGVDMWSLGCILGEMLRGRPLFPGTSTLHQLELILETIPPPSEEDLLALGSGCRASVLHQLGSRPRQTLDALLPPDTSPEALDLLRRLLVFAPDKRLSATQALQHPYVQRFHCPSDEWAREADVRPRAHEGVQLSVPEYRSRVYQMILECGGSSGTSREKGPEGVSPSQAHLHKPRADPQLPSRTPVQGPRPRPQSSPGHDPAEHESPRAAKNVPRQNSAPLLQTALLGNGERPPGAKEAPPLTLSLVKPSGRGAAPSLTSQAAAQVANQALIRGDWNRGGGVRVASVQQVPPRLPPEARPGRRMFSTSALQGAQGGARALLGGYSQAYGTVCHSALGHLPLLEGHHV

EPHB4 = target: T2, EPHB4 (Homo sapiens, UniProt P54760); details: 1 μM; Run 1, Run 2
T2 sequence (P54760 16-987): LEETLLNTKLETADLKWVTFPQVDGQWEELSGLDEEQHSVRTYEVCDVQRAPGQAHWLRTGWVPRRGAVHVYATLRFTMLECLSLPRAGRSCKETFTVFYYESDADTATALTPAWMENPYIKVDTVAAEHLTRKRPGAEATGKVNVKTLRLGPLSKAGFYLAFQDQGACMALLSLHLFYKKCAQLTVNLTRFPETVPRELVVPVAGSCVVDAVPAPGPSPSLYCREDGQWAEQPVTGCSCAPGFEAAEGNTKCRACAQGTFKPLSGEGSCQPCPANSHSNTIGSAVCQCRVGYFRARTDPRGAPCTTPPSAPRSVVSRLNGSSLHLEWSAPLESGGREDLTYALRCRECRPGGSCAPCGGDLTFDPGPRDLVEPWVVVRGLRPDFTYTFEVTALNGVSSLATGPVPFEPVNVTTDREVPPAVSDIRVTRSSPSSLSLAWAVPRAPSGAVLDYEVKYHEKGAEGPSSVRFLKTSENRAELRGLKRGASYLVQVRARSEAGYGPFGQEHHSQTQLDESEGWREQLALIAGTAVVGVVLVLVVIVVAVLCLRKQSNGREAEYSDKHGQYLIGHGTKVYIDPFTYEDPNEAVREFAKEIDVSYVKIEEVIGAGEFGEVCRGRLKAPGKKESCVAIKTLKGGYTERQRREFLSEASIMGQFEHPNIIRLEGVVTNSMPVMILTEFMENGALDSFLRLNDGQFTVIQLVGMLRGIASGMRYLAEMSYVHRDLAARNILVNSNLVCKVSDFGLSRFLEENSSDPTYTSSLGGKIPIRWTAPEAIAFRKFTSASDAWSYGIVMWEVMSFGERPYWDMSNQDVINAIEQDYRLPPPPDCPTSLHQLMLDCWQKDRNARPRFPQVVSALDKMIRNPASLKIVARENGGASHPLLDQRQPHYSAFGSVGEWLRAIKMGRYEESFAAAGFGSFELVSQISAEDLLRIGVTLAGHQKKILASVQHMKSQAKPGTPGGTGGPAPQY

PLK1 = PLK1 (Homo sapiens, UniProt P53350); details: 1 μM; Run 1, Run 2
CLK3 = CLK3 (Homo sapiens, UniProt P49761); test: biochemical; details: read-out: % enzyme activity, 1 μM; Run 1, Run 2
STK16 = STK16 (Homo sapiens, UniProt O75716); test: biochemical; details: read-out: % enzyme activity, 1 μM; Run 1, Run 2
CDK8/cyclin C = CDK8/cyclin C (Homo sapiens, UniProt P49336); details: 1 μM; Run 1, Run 2
MKK6 = target: T3, MKK6 (Homo sapiens, UniProt P52564); details: 1 μM; Run 1, Run 2
T3 sequence (P52564 1-334): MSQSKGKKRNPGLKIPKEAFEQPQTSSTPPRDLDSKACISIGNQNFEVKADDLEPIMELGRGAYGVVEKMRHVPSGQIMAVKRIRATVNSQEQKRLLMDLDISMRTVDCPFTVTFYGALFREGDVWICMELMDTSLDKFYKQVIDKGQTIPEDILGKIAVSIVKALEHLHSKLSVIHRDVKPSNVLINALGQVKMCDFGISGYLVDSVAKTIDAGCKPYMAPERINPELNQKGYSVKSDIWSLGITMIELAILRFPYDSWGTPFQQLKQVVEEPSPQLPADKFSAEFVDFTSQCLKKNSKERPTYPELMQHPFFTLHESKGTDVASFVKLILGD

PKCeta = PKCeta (Homo sapiens, UniProt P24723); details: 1 μM; Run 1, Run 2
YES/YES1 = YES/YES1 (Homo sapiens, UniProt P07947); details: 1 μM; Run 1, Run 2
BTK = BTK (Homo sapiens, UniProt Q06187); test: biochemical; details: read-out: % enzyme activity, 1 μM; Run 1, Run 2
TGFBR2 = target: T4, TGFBR2 (Homo sapiens, UniProt P37173); test: 375-member kinase panel; format: biochemical; details: Run 1, Run 2; for % enzyme activity: 1 μM; for remaining activity at 1 µM: read-out: % enzyme activity, 1 μM
T4 construct: purchased Reaction Biology Corporation

AURORA B = AURORA B (Homo sapiens, UniProt Q96GD4); details: 1 μM; Run 1, Run 2
Sequence of AURORA B (Q96GD4 whole entry): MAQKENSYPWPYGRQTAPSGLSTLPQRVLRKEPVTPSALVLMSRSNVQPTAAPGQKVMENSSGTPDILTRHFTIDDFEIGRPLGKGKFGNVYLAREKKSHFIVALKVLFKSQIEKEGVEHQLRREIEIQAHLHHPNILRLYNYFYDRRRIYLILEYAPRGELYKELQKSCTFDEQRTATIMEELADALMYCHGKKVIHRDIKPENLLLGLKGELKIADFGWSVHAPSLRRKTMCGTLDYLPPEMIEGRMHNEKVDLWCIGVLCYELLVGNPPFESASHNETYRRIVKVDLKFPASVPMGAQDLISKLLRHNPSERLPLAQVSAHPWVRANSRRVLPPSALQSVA

T4 sequence (P37173 23-567): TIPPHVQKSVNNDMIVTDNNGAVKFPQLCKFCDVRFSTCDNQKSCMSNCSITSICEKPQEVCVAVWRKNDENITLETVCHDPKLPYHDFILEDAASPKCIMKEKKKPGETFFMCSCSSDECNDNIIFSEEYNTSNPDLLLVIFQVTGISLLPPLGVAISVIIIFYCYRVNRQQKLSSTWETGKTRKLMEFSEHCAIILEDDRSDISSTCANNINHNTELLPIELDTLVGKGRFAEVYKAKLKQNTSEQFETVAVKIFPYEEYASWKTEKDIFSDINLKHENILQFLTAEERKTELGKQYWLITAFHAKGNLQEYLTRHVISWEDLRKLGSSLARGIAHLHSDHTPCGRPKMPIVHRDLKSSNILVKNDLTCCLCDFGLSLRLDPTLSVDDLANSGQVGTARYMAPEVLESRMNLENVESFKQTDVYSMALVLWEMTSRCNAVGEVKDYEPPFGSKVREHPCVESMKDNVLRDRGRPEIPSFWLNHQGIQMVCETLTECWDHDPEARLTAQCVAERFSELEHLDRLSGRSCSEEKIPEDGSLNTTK
Sequence of PKCeta (P24723 whole entry): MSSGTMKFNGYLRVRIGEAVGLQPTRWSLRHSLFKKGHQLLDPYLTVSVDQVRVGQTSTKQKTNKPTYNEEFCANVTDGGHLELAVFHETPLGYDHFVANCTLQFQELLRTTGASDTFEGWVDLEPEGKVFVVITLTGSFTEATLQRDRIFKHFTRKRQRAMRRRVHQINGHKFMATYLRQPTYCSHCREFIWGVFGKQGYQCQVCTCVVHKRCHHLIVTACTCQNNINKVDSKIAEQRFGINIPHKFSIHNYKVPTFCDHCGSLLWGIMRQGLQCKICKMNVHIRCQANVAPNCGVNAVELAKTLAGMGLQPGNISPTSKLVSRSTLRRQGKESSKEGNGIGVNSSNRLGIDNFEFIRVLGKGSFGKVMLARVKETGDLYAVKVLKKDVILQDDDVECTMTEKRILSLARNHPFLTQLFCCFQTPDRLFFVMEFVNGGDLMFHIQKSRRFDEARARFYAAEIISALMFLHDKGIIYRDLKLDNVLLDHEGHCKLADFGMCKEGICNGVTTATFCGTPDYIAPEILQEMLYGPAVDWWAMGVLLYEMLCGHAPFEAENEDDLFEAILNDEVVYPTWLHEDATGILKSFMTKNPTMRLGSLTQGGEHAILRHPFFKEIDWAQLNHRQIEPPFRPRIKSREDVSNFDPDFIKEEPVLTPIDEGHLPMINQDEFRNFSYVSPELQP
Sequence of CDK8/cyclin C (P49336 whole entry): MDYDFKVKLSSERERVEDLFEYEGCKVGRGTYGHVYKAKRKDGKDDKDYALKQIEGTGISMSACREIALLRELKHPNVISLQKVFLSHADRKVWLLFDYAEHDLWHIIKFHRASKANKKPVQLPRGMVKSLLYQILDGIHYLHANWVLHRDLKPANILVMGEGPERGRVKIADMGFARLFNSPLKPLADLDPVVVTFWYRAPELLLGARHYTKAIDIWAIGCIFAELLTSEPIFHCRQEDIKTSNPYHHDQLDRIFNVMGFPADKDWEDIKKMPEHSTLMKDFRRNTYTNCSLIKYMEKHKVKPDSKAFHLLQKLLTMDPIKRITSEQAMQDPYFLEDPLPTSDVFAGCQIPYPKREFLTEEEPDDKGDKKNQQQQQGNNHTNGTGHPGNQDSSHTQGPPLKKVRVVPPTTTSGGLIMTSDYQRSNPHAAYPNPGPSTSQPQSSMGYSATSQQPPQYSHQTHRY
Sequence of CDK8/cyclin C (P24863 whole entry partner): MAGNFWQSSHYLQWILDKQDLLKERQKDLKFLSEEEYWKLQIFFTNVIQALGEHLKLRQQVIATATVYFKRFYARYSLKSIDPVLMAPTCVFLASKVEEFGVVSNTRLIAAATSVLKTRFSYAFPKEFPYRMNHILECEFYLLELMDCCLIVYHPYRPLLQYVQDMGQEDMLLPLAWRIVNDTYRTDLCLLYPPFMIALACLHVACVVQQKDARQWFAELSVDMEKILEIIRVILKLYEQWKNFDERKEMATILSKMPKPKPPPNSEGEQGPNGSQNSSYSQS
Sequence of BTK (Q06187 whole entry): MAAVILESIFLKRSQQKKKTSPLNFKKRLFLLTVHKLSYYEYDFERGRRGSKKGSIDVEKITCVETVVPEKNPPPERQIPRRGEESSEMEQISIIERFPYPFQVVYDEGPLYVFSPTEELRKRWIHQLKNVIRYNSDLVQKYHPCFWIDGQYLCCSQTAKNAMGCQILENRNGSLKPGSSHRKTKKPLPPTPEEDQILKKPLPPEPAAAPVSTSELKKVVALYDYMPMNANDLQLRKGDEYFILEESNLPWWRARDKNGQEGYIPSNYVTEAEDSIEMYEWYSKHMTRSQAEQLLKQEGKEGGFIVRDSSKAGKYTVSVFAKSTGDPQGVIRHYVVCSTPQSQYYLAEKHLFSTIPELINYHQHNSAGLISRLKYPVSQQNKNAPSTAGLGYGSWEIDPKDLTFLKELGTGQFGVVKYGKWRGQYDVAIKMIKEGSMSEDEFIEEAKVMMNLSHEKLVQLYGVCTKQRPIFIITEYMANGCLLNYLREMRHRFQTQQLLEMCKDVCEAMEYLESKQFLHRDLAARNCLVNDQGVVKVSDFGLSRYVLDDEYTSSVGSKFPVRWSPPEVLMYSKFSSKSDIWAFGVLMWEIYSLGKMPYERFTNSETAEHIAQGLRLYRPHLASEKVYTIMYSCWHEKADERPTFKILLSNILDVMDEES
Sequence of PLK1 (P53350 whole entry): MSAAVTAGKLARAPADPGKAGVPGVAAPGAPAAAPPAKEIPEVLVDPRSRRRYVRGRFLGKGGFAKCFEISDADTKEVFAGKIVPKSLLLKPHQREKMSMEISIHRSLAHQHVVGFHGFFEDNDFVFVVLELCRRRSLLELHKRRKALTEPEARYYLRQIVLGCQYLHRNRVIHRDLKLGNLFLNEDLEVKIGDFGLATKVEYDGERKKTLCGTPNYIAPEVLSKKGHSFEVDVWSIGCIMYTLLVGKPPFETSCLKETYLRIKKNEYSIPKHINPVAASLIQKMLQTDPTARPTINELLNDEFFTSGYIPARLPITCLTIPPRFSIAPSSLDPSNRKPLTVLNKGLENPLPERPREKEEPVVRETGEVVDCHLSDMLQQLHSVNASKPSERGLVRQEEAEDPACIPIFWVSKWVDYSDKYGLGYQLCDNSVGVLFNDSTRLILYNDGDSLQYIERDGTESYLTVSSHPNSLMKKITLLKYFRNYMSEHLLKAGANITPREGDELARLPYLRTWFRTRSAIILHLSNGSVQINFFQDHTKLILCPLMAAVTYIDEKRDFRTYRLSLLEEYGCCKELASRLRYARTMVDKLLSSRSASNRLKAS
Sequence of CLK3 (P49761 whole entry): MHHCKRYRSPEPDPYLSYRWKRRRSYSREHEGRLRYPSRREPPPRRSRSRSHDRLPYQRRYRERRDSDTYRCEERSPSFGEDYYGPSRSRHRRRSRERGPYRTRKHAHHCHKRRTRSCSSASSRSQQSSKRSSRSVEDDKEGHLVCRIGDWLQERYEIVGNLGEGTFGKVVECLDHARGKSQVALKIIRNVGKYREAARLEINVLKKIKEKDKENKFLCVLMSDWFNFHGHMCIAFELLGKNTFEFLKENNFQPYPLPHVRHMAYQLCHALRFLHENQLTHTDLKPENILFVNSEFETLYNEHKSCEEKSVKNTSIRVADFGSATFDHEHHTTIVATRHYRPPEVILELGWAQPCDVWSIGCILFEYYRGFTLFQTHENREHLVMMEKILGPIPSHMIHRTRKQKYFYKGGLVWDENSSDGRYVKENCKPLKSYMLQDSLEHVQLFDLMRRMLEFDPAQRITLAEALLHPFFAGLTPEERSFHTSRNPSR
Sequence of STK16 (O75716 whole entry): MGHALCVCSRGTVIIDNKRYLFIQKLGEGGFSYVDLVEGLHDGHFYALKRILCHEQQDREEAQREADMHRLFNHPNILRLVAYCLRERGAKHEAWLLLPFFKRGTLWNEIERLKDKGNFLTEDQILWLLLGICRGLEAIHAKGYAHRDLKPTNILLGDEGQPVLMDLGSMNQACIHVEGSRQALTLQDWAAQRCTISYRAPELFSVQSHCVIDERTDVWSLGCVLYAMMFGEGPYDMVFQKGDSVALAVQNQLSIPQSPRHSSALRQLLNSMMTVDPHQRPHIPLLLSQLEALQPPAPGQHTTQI
Sequence of YES/YES1 (P07947 whole entry): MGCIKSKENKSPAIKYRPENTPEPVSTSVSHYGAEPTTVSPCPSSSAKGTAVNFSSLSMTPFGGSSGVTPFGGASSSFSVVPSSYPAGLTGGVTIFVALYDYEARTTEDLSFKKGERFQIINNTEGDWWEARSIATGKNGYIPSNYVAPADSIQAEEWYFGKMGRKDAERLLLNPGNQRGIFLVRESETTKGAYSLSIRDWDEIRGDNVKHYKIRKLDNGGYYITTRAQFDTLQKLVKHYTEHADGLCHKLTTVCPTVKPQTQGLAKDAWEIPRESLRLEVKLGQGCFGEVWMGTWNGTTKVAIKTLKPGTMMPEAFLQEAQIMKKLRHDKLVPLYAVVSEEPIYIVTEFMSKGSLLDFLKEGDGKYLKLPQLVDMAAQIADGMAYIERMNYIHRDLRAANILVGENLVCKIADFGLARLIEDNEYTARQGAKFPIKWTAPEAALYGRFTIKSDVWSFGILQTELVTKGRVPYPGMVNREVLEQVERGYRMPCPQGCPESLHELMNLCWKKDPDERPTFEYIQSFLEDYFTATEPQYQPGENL

Row | SMILES | remaining activity at 1 µM (ERK7/MAPK15) [%] | % enzyme activity (EPHB4) [%] | % enzyme activity (PLK1) [%] | remaining activity at 1 µM (CLK3) [%] | remaining activity at 1 µM (STK16) [%] | % enzyme activity (CDK8/cyclin C) [%] | % enzyme activity at 1 μM (DYRK1/DYRK1A) | % enzyme activity (MKK6) [%] | % enzyme activity (PKCeta) [%] | % enzyme activity (YES/YES1) [%] | remaining activity at 1 µM (BTK) [%] | % enzyme activity (TGFBR2) [%] | remaining activity at 1 µM (TGFBR2) [%] | % enzyme activity (AURORA B) [%]
1 | COc1cc(-c2cncc(-c3ccc(N4CCN(C)CC4)cc3)c2C)cc(F)c1C(N)=O [Compound 26a, 2-Fluoro-6-methoxy-4-(4-methyl-5-(4-(4-methylpiperazin-1-yl)phenyl)pyridin-3-yl)benzamide] | 86.8 | 93.42 | 91.24 | 103 | 107 | 83.64 | 43.3% and 43.1% | 80.71 | 93.90 | 104.56 | 95.3 | 97.44 | 103 | 100.58
2 | COc1cc(-c2cncc(-c3ccc(N4C[C@@H](C)N(C)[C@@H](C)C4)cc3)c2C)cc(F)c1C(N)=O [Compound 26c, 2-Fluoro-6-methoxy-4-(4-methyl-5-(4-((3R,5S)-3,4,5-trimethylpiperazin-1-yl)phenyl)pyridin-3-yl)benzamide] | 98.3 | 91.07 | 92.70 | 88.3 | 101 | 92.05 | 62.4% and 60% | 79.33 | 98.10 | 108.87 | 96.5 | 105.33 | 106 | 104.62
